Measurements: the supplement of paper PMC10307832

Experiments:
Assay in all cases: relative viability (nuclei count vs DMSO), 5 days (fraction); higher = more cells survive
Erlotinib + Pemetrexed = compound: C#Cc1cccc(Nc2ncnc3cc(OCCOC)c(OCCOC)cc23)c1 [Erlotinib] + Nc1nc2[nH]cc(CCc3ccc(C(=O)N[C@@H](CCC(=O)O)C(=O)O)cc3)c2c(=O)[nH]1 [Pemetrexed] (partner 0.2 µM)
Outline: (§1)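 Five library-drug doses in √10 steps were combined with a fixed anchor-drug dose, or a single drug was given alone, by pin tool to lung cancer cell lines in 1536-well plates the day after seeding. Nuclei were stained and counted after 5 days. Relative viability is the nuclei count in treated wells over that in vehicle wells, taken as the median of duplicate plates.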

AT9283 + Foretinib = compound: O=C(Nc1c[nH]nc1-c1nc2ccc(CN3CCOCC3)cc2[nH]1)NC1CC1 [AT9283] + COc1cc2c(Oc3ccc(NC(=O)C4(C(=O)Nc5ccc(F)cc5)CC4)cc3F)ccnc2cc1OCCCN1CCOCC1 [Foretinib] (partner 0.25 µM)
Outline: as §1

Erlotinib + Dasatinib = compound: C#Cc1cccc(Nc2ncnc3cc(OCCOC)c(OCCOC)cc23)c1 [Erlotinib] + Cc1nc(Nc2ncc(C(=O)Nc3c(C)cccc3Cl)s2)cc(N2CCN(CCO)CC2)n1 [Dasatinib] (partner 0.075 µM)
Outline: as §1

AT9283 + Linsitinib = compound: O=C(Nc1c[nH]nc1-c1nc2ccc(CN3CCOCC3)cc2[nH]1)NC1CC1 [AT9283] + C[C@]1(O)C[C@@H](c2nc(-c3ccc4ccc(-c5ccccc5)nc4c3)c3c(N)nccn32)C1 [Linsitinib] (partner 1 µM)
Outline: as §1

AT9283 + Lapatinib = compound: O=C(Nc1c[nH]nc1-c1nc2ccc(CN3CCOCC3)cc2[nH]1)NC1CC1 [AT9283] + CS(=O)(=O)CCNCc1ccc(-c2ccc3ncnc(Nc4ccc(OCc5cccc(F)c5)c(Cl)c4)c3c2)o1 [Lapatinib] (partner 2 µM)
Outline: as §1

Cell Line	relative viability (Erlotinib + Pemetrexed; first compound 0.02 µM)	relative viability (Erlotinib + Pemetrexed; first compound 0.2 µM)	relative viability (Erlotinib + Pemetrexed; first compound 0.6325 µM)	relative viability (Erlotinib + Pemetrexed; first compound 2 µM)	relative viability (AT9283 + Foretinib; first compound 0.003 µM)	relative viability (AT9283 + Foretinib; first compound 0.03 µM)	relative viability (AT9283 + Foretinib; first compound 0.09487 µM)	relative viability (AT9283 + Foretinib; first compound 0.3 µM)	relative viability (Erlotinib + Dasatinib; first compound 0.02 µM)	relative viability (Erlotinib + Dasatinib; first compound 0.2 µM)	relative viability (Erlotinib + Dasatinib; first compound 0.6325 µM)	relative viability (Erlotinib + Dasatinib; first compound 2 µM)	relative viability (AT9283 + Linsitinib; first compound 0.003 µM)	relative viability (AT9283 + Linsitinib; first compound 0.03 µM)	relative viability (AT9283 + Linsitinib; first compound 0.09487 µM)	relative viability (AT9283 + Linsitinib; first compound 0.3 µM)	relative viability (AT9283 + Lapatinib; first compound 0.003 µM)	relative viability (AT9283 + Lapatinib; first compound 0.03 µM)	relative viability (AT9283 + Lapatinib; first compound 0.09487 µM)	relative viability (AT9283 + Lapatinib; first compound 0.3 µM)
NCI-H2347	0.454	0.401	0.439	0.409	0.844	0.869	0.672	0.446	0.371	0.309	0.289	0.296	0.952	0.975	0.555	0.389	0.894	0.866	0.571	0.501
NCI-H3122	0.215	0.186	0.179	0.168	0.803	0.852	0.284	0.0779	0.799	0.453	0.903	0.877	0.963	0.885	0.346	0.166	1.07	0.964	0.446	0.328
HARA	0.259	0.21	0.186	0.222	0.79	0.151	0.122	0.109	0.28	0.265	0.253	0.151	0.428	0.879	0.0968	0.0955	0.767	0.504	0.0806	0.0666
HCC-78	0.883	0.912	0.892	0.899	0.5	0.485	0.331	0.305	0.319	0.36	0.364	0.225	0.475	0.41	0.172	0.185	0.562	0.587	0.224	0.196
HCC-366	0.176	0.197	0.127	0.136	0.962	0.881	0.0841	0.0697	0.61	0.606	0.637	0.522	0.71	0.319	0.0197	0.0206	1.01	0.0702	0.0449	0.0374
PC-14	0.11	0.168	0.15	0.133	0.956	0.796	0.581	0.16	0.0626	0.0332	0.0591	0.0181	1.04	0.729	0.438	0.138	0.328	0.393	0.203	0.102
LK-2	0.259	0.278	0.318	0.235	0.965	0.31	0.159	0.129	0.318	0.225	0.306	0.268	0.341	0.351	0.129	0.127	0.788	0.26	0.198	0.181
NCI-H358	0.176	0.156	0.147	0.164	0.653	0.155	0.0898	0.0981	0.174	0.129	0.133	0.171	0.447	0.142	0.12	0.17	0.413	0.192	0.176	0.16
UMC-11	0.759	0.746	0.851	0.668	0.996	0.181	0.175	0.184	0.512	0.438	0.482	0.424	0.849	0.138	0.14	0.168	0.978	0.142	0.128	0.202
LCLC-97TM1	0.22	0.201	0.176	0.155	0.938	0.49	0.163	0.176	0.749	0.794	0.967	0.782	0.184	0.156	0.107	0.0936	0.746	0.15	0.129	0.126
HOP-62	0.285	0.332	0.255	0.312	1.12	0.667	0.324	0.321	0.695	0.583		0.567	0.927	0.721	0.178	0.173	1.06	0.984	0.47	0.176
NCI-H1703					0.335	0.254	0.273	0.228					0.985	0.284	0.258	0.223	1.24	0.277	0.31	0.354
NCI-H520	0.847	0.749		0.609	0.95	0.326	0.337	0.295	0.188	0.186	0.245	0.234	0.926	0.37	0.291	0.181	0.77	0.295	0.21	0.196
NCI-H2126	0.717	0.6	0.415	0.376	1.2	1.18	0.652	0.447	0.595	0.435	0.444	0.374	0.685	0.758	0.714	0.276	0.748	0.737	0.66	0.296
NCI-H2087	0.753	0.704	0.728	0.701	1.03	0.388	0.195	0.132	0.799	0.821	0.923	0.735	1.08	0.542	0.339	0.245	0.894	0.269	0.222	0.186
NCI-H1355	1.06	0.995	1.03		0.871	0.952	0.582	0.272	0.701	0.571	0.666	0.472	0.807	0.649	0.273	0.167	1.01	0.911	0.845	0.168
Calu-6					0.728	0.203	0.214	0.24					0.859	0.286	0.222	0.197	1.1	0.33	0.245	0.27
A-427	0.967	1.04	1.06	1.01	1.01	1.04	0.24	0.216	0.832	0.687	0.842	0.676	0.834	1.03	0.276	0.205	0.936	0.897	0.671	0.219
NCI-H2170	0.275	0.261	0.242	0.237	1.06	0.897	0.261	0.21	0.554	0.548	0.434	0.272					0.242	0.261	0.2	0.2

Cell Line	relative viability (Erlotinib + Pemetrexed; first compound 0.02 µM)	relative viability (Erlotinib + Pemetrexed; first compound 0.2 µM)	relative viability (Erlotinib + Pemetrexed; first compound 0.6325 µM)	relative viability (Erlotinib + Pemetrexed; first compound 2 µM)	relative viability (AT9283 + Foretinib; first compound 0.003 µM)	relative viability (AT9283 + Foretinib; first compound 0.03 µM)	relative viability (AT9283 + Foretinib; first compound 0.09487 µM)	relative viability (AT9283 + Foretinib; first compound 0.3 µM)	relative viability (Erlotinib + Dasatinib; first compound 0.02 µM)	relative viability (Erlotinib + Dasatinib; first compound 0.2 µM)	relative viability (Erlotinib + Dasatinib; first compound 0.6325 µM)	relative viability (Erlotinib + Dasatinib; first compound 2 µM)	relative viability (AT9283 + Linsitinib; first compound 0.003 µM)	relative viability (AT9283 + Linsitinib; first compound 0.03 µM)	relative viability (AT9283 + Linsitinib; first compound 0.09487 µM)	relative viability (AT9283 + Linsitinib; first compound 0.3 µM)	relative viability (AT9283 + Lapatinib; first compound 0.003 µM)	relative viability (AT9283 + Lapatinib; first compound 0.03 µM)	relative viability (AT9283 + Lapatinib; first compound 0.09487 µM)	relative viability (AT9283 + Lapatinib; first compound 0.3 µM)
NCI-H460	0.0628	0.0521	0.0611	0.0588	0.983	0.907	0.184	0.0594	0.486	0.51	0.5	0.432	0.761	0.0766	0.0186	0.0256	1.05	0.0247	0.0158	0.0301
NCI-H2405	0.893	1.1	1.06	1.09	1.05	0.82	0.352	0.312	0.214	0.224	0.201	0.195	1.06	0.632	0.315	0.221	1.15	0.789	0.295	0.198
NCI-H2023	0.226	0.211	0.174	0.184	0.739	0.86	0.301	0.108	0.639	0.408	0.623	0.44	0.765	0.308	0.135	0.132	0.778	0.133	0.122	0.0743
SW 900	0.497	0.495	0.461	0.445	1.1	0.898	0.866	0.366	0.655	0.506	0.517	0.374								
EBC-1					0.107	0.0785	0.0877	0.075					0.997	0.354	0.214	0.111	0.217	0.178	0.208	0.182
NCI-H2342	0.707	0.822	0.715	0.583	1.2	1.01	0.547	0.367	0.289	0.323	0.304	0.26								
NCI-H1299					1.13	0.541	0.415	0.373					0.888	0.705	0.402	0.256	1.02	0.509	0.404	0.343
ABC-1					1.02	0.15	0.178	0.153	0.564	0.491	0.506	0.565	0.722	0.211	0.182	0.182	0.938	1.19	0.476	0.46
HCC-44	0.682	0.724	0.662	0.639									0.628	0.745	0.148	0.14	0.922	0.641	0.23	0.188
NCI-H1648	0.759	0.707	0.629	0.66																
NCI-H522	0.94	1.08	1.12	0.811					0.812	0.784	1.06	0.85								
ChaGo-K-1	0.276	0.259	0.267	0.26	0.918	0.521	0.319	0.268	0.626	0.512	0.636	0.5								
NCI-H1623					0.91	0.837	0.612	0.487	0.562	0.517	0.315	0.366								
LCLC-103H	0.502	0.449	0.476	0.45	0.737	0.732	0.258	0.219		0.6	0.478	0.399	0.952	1.04	1.07	0.419				
A549					0.87	0.118	0.131	0.0419					0.539	0.311	0.0598	0.0613	1.02	0.0919	0.0686	0.0884
IA-LM					1.21	0.391	0.105	0.0774					0.626	0.432	0.311	0.102	0.793	0.27	0.0791	0.0891
NCI-H727					0.689	0.649	0.437	0.331	0.308		0.295	0.322	0.211	0.16	0.199	0.23	0.847	0.435	0.28	0.249
NCI-H1650	0.337	0.324	0.352	0.298	1.2	0.985	0.46	0.327	0.283	0.265	0.282	0.325					0.697	0.287	0.225	0.115
NCI-H1792	1.05	0.629	1.02	0.51					0.875	0.655	0.981	0.608	0.492	0.629	0.192	0.117	0.797	0.713	0.151	0.108
